In patent US10485795B2, “FXR (NR1H4) binding and activity modulating compounds” (Gilead Sciences, Inc., priority 2011, dated 2019):
pEC50: −log10 of the molar value. Converted amounts (≈) assume the structure as drawn.

Experiments:
Aqueous solubility assay = type: physicochemical; conditions: PBS buffer, kinetic from dmso stock, pH 7.4, theoretical final concentration of 200 μM
Procedure: The aq. solubility in PBS, pH 7.4 was determined as follows. A 10 mM compound stock solution in DMSO was added to PBS (pH 7.4) to reach a theoretical final concentration of 200 μM. The resulting solution/suspension was shaken at 1250 rpm for 1 h and then stored in the dark at rt for 23 h. At this time any precipitate is separated from the solution by centrifugation at 3900 rpm for 30 min. The aq. solubility was determined by comparing the peak area of the principle peak in a calibration standard (200 μM) in an organic solvent (methanol/water 60:40, v/v) with the peak area of the corresponding peak in the buffer sample. As detection method was used HPLC-UV/VIS at 230 nm.

[1] = Parallel Artificial Membrane Permeation Assay (PAMPA); type: in vitro ADME; conditions: Flux (%) = (c acceptor well) / sum (c donor well + c acceptor well) × 100 × 2; PBS pH 7.4, 15-16 h at rt
Procedure: For the PAMPA, 5 mM stock solutions of test items were prepared in DMSO. 5 mM stock solutions of reference items were prepared in EtOH (carbamazepine, guanabenz) or in EtOH:H2O 1:1 (v/v) (ceftriaxone), respectively. Compounds were diluted in PBS (pH 7.4) to obtain the starting solutions containing 5% of the respective organic solvent and 250 μM reference compounds or 10 μM test items, respectively. For the assay, a modified procedure of the PAMPA as described by Kansy et al. Kansy et al. (J. Med. Chem. 1998, 41, 1007) was used. The reference compounds for low (ceftriaxone), medium (guanabenz) and high permeation (carbamazepine) were included as internal controls.
Permeation experiments were carried out in a Multiscreen 96 well tray (donor) covered by a 96-well Multiscreen Immobilon (acceptor). The hydrophobic filter material of the Immobilon plate was pre-wetted with 70% ethanol and treated with a solution of lipids (lecithin dissolved in dodecane). The donor plate was filled with test compounds and reference compounds and both plates were inserted into each other and placed onto an orbital shaker for 15 min at 100 rpm. The transport study was started by applying 150 μL PBS-buffer containing the test and reference compounds to the donor plate. After 15-16 h of diffusion at rt, the contents of the acceptor and donor plate were collected and quantified using LC/MS-detection (test items) or by UV spectroscopy using a Spectramax Plus^384 (Molecular Devices) (reference items). The absorption maxima for the reference items ceftriaxone, guanabenz and carbamazepine were 240 nm, 270 nm and 286 nm, respectively. Recovery samples were prepared as described for the permeation assay samples and were incubated in representative vials during the permeation period under the same conditions.
For LC/MS analysis of the test items, 100 μL incubate were removed from acceptor and donor compartment and processed for acetonitrile (ACN) precipitation as described below. Additionally, test item samples from the lipid layer were extracted by flushing each well two times with 150 μL EA. The solutions were collected in 1.5 mL reaction tubes and the solvent was evaporated. The dried residues were resuspended in a PBS/DMSO/ACN mixture reflecting the composition of the acceptor and donor samples (i.e. 100 μL buffer supplemented with 5% DMSO, 200 μL ACN+ISTD). The final solvent content of each sample was 66% ACN.
Samples from donor and acceptor compartments and calibration standards were precipitated by addition of 200 μL ACN/ISTD or 400 μL ACN/ISTD, respectively. After vigorous shaking (10 seconds) and centrifugation (5 min at 4800×g, rt), the particle free supernatants were subjected to LC-MS/MS. Membrane compartments were extracted as described above. […]

[2] = target: T1, FXR ligand binding domain (Homo sapiens, UniProt Q96RI1); assay: Mammalian One Hybrid (M1H) assay, Gal4 reporter in HEK293 cells; type: cell-based; conditions: Gal4-FXR LBD transactivation, HEK293 cells; read-out: EC50 potency range (Group), M1H assay
T1 construct: expressed in transfected cells; host or cells: HEK293 (DSMZ), transient transfection with a pCMV-BD construct
T1 sequence (Q96RI1 187-472 isoform Q96RI1-2): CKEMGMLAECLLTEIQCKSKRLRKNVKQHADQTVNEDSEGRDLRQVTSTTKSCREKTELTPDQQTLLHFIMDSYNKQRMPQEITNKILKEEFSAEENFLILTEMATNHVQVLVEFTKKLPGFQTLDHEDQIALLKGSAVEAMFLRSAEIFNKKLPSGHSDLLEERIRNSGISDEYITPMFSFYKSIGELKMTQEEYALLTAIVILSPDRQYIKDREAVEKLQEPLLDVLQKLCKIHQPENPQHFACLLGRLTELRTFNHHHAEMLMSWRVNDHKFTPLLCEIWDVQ
Procedure: Determination of a ligand mediated Gal4 promoter driven transactivation to quantify ligand binding mediated activation of FXR was performed as follows: The cDNA part encoding the FXR ligand binding domain was cloned into vector pCMV-BD (Stratagene) as a fusion to the yeast GAL4 DNA binding domain under the control of the CMV promoter. […] The plasmid pFR-Luc (Stratagene) was used as the reporter plasmid, containing a synthetic promoter with five tandem repeats of the yeast GAL4 binding sites, driving the expression of the Photinus pyralis (American firefly) luciferase gene as the reporter gene. In order to improve experimental accuracy the plasmid pRL-CMV (Promega) was cotransfected. pRL-CMV contains the constitutive CMV promoter, controlling the expression of the Renilla reniformis luciferase. All Gal4 reporter gene assays were done in HEK293 cells (obtained from DSMZ, Braunschweig, Germany) grown in MEM with L-Glutamine and Earle's BSS supplemented with 10% fetal bovine serum, 0.1 mM nonessential amino acids, 1 mM sodium pyruvate, and 100 units Penicillin/[…] per mL at 37° C. in 5% CO2. Medium and supplements were obtained from Invitrogen. For the assay, […] were plated per well in 96 well plates in 100 μL per well MEM without Phenol Red and L-Glutamine and with Earle's BSS supplemented with 10% charcoal/dextran treated FBS (HyClone, South Logan, Utah), 0.1 mM nonessential amino acids, 2 mM glutamine, 1 mM sodium pyruvate, and 100 units Penicillin/[…] per mL, incubated at 37° C. in 5% CO2. The following day the cells were >90% confluence. […] MEM with the same composition as used for plating cells was added 2-4 h after addition of transfection mixture. Then compound stocks, prediluted in MEM were added (final vehicle concentration not exceeding 0.1%). […] All experiments were done in triplicates.

[3] = target: T2, human FXR alpha ligand binding domain (Homo sapiens, UniProt Q96RI1); assay: FRET activity assay (ligand mediated cofactor peptide interaction); type: biochemical; conditions: FXR-LBD/SRC-1 peptide interaction, LANCE; read-out: EC50 (Group), FRET activity assay
T2 construct: made in house; host or cells: E. coli BL21(DE3), vector pDEST15
T2 sequence (Q96RI1 187-472 isoform Q96RI1-2): T1 sequence (Q96RI1 187-472 isoform Q96RI1-2)
Procedure: Determination of a ligand mediated cofactor peptide interaction to quantify ligand binding to the nuclear receptor FXR was performed as follows: Preparation of human FXR alpha ligand binding domain: The human FXRalpha LBD was expressed in E. coli strain BL21(DE3) as an N-terminally GST tagged fusion protein. The DNA encoding the FXR ligand binding domain was cloned into vector pDEST15 (Invitrogen). Expression was under control of an IPTG inducible T7 promoter. The amino acid boundaries of the ligand binding domain were amino acids 187-472 of Database entry NM_005123 (RefSeq). Expression and purification of the FXR-LBD: An overnight preculture of a transformed E. coli strain was diluted 1:20 in LB-Ampicillin medium and grown at 30° C. to an optical density of OD600=0.4-0.6. Gene expression was then induced by addition of 0.5 mM IPTG. Cells were incubated an additional 6 h at 30° C., 180 rpm. Cells were collected by centrifugation (7000×g, 7 min, rt). Per liter of original cell culture, cells were resuspended in 10 mL lysis buffer (50 mM Glucose, 50 mM Tris pH 7.9, 1 mM EDTA and 4 mg/mL lysozyme) and left on ice for 30 min. Cells were then subjected to sonication and cell debris removed via centrifugation (22000×g, 30 min, 4° C.). Per 10 mL of supernatant 0.5 mL prewashed Glutathione 4B sepharose slurry (Qiagen) was added and the suspension kept slowly rotating for 1 h at 4° C. Glutathione 4B sepharose beads were pelleted by centrifugation (2000×g, 15 sec, 4° C.) and washed twice in wash buffer (25 mM Tris, 50 mM KCl, 4 mM MgCl2 and 1M NaCl). The pellet was resuspended in 3 mL elution buffer per liter of original culture (elution buffer: 20 mM Tris, 60 mM KCl, 5 mM MgCl2 and 80 mM glutathione added immediately prior to use as powder). The suspension was left rotating for 15 min at 4° C., the beads pelleted and eluted again with half the volume of elution buffer than the first time. The eluates were pooled and dialysed overnight in 20 mM Hepes buffer (pH 7.5) containing 60 mM KCl, 5 mM MgCl2 as well as 1 mM dithiothreitol and 10% (v/v) glycerol. The protein was analysed by SDS-Page.
The method measures the ability of putative ligands to modulate the interaction between the purified bacterial expressed FXR ligand binding domain (LBD) and a synthetic biotinylated peptide based on residues 676-700 of SRC-1 (LCD2, 676-700). The sequence of the peptide used was B-[…]-COOH where the N-terminus was biotinylated (B). The ligand binding domain (LBD) of FXR was expressed as fusion protein with GST in BL-21 cells using the vector pDEST15. Cells were lysed by sonication, and the fusion proteins purified over glutathione sepharose (Pharmacia) according to the manufacturers instructions. For screening of compounds for their influence on the FXR-peptide interaction, the Perkin Elmer LANCE technology was applied. This method relies on the binding dependent energy transfer from a donor to an acceptor fluorophor attached to the binding partner of interest. For ease of handling and reduction of background from compound fluorescence LANCE technology makes use of generic fluorophore labels and time resolved detection Assays were done in a final volume of 25 μL in a 384 well plate, in a Tris-based buffer (20 mM Tris-HCl pH 7.5; 60 mM KCl, 5 mM MgCl2; 35 ng/μL BSA), containing 20-60 ng/well recombinantly expressed FXR-LBD fused to GST, 200-600 nM N-terminally biotinylated peptide, representing SRC1 aminoacids 676-700, 200 ng/well Streptavidin-xIAPC conjugate (Prozyme) and 6-10 ng/well Eu W1024-antiGST (Perkin Elmer). DMSO content of the samples was kept at 1%. After generation of the assay mix and diluting the potentially FXR modulating ligands, the assay was equilibrated for 1 h in the dark at rt in FIA-plates black 384 well (Greiner). The LANCE signal was detected by a Perkin Elmer VICTOR2VTM Multilabel Counter. The results were visualized by plotting the ratio between the emitted light at 665 and 615 nm. […]

solubility at 24 h (Aqueous solubility assay) | PAMPA, Membrane permeability in % Flux [1] | pEC50 [2] | pEC50 [3] | SMILES
195 µM (≈ 114 µg/mL) |  |  |  | O=C(O)c1cccc(N2CC(O)(c3ccc(OCc4c(-c5c(Cl)cccc5Cl)noc4C4CC4)cc3Cl)C2)c1
192 µM (≈ 112 µg/mL) | 24.0 % Flux |  |  | O=C(O)c1cccc([C@H]2C[C@](O)(c3ccc(OCc4c(-c5c(Cl)cccc5Cl)noc4C4CC4)cc3Cl)C2)c1 [drawing 47]
20 µM (≈ 11.1 µg/mL) | 13.6 % Flux |  |  | O=C(O)c1cccc(C2CC2c2ccc(OCc3c(-c4c(Cl)cccc4Cl)noc3C3CC3)cc2Cl)c1 (stereo not drawn) [reference compound]
 |  | < 7.00 | 7.00 to 7.60 | CS(=O)(=O)c1cccc(C2CC(O)(c3ccc(OCc4c(-c5c(Cl)cccc5Cl)noc4C4CC4)cc3Cl)C2)c1 (stereo not drawn) [Example 6, 1-(2-Chloro-4-((5-cyclopropyl-3-(2,6-dichlorophenyl)isoxazol-4-yl)methoxy)phenyl)-3-(3-(methylsulfonyl)phenyl)cyclobutanol]
 |  | 7.00 to 7.60 | > 7.60 | CC(C)n1nc(C(=O)O)cc1[C@H]1C[C@](O)(c2ccc(OCc3c(-c4c(Cl)cccc4Cl)noc3C3CC3)cc2Cl)C1 [Example 8, 5-((1s,3s)-3-(2-Chloro-4-((5-cyclopropyl-3-(2,6-dichlorophenyl)isoxazol-4-yl)methoxy)phenyl)-3-hydroxycyclobutyl)-1-isopropyl-1H-pyrazole-3-carboxylic Acid]
 |  | < 7.00 | > 7.60 | O=C(O)c1cncc(N2CC(O)(c3ccc(OCc4c(-c5c(Cl)cccc5Cl)noc4C4CC4)cc3Cl)C2)c1 (single isomer, unassigned) [13/8]
 |  | > 7.60 | 7.00 to 7.60 | Cc1cc(C(=O)O)cc(C2CC(O)(c3ccc(OCc4c(-c5c(Cl)cccc5Cl)noc4C4CC4)cc3Cl)C2)c1 (single isomer, unassigned) [13/5]
 |  | < 7.00 | 7.00 to 7.60 | COC(=O)c1cccc([C@H]2C[C@](O)(c3ccc(OCc4c(-c5c(Cl)cccc5Cl)noc4C4CC4)cc3Cl)C2)c1 [Example 1, Methyl 3-((1s,3s)-3-(2-chloro-4-((5-cyclopropyl-3-(2,6-dichlorophenyl)isoxazol-4-yl)methoxy)phenyl)-3-hydroxycyclobutyl)benzoate]
